Source: publication PMC9502272, “A Metabolomics Approach for Predicting OATP1B-Type Transporter-Mediated Drug–Drug Interaction Liabilities” (Pharmaceutics, 2022)
Counter-ions that a name gives are not always drawn.

Target: T1, Oatp1b2 (Mus musculus, UniProt Q9JJL3)
T1 sequence (Q9JJL3 1-689): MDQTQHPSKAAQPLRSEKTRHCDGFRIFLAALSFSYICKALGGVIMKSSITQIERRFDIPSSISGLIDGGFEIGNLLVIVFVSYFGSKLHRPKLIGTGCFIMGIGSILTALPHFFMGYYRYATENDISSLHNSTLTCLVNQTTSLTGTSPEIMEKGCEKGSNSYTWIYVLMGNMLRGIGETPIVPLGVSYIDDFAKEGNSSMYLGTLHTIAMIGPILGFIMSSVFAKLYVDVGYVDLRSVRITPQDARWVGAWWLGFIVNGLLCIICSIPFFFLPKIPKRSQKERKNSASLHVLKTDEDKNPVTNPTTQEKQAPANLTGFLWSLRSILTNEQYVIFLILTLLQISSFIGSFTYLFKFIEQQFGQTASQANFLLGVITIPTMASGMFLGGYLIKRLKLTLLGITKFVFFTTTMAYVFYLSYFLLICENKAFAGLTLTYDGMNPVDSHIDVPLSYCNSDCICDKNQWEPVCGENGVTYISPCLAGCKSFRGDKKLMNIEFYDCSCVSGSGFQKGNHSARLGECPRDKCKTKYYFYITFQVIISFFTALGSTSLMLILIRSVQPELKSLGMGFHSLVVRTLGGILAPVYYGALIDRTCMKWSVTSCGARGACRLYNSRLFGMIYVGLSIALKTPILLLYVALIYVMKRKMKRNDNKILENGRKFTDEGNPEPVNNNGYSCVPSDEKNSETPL
Test: Untargeted metabolomics of plasma from untreated wild-type and Oatp1b2(−/−) mice
Details: for Fold of Change KO/WT: plasma of untreated Oatp1b2-deficient (KO) vs wild-type (WT) mice, semi-quantitative, positive = higher in KO, n = 6 per group; for Mean value KO: plasma of untreated Oatp1b2-deficient mice; for Mean value KO / Mean value WT: raw area counts rescaled to median = 1; for Mean value WT: plasma of untreated wild-type mice
Method: For all experiments, age- and sex-matched mice (8–12 weeks old) were used. […] Mice with a deficiency of Oatp1b2 (Oatp1b2(−/−) mice), the single murine orthologue of OATP1B1 and OATP1B3 in humans, on a DBA/1LacJ background were kindly provided by Drs. Richard B. Kim (Western University, London, Ontario, Canada) and Jeffrey L. Stock (Pfizer, Groton, CT, USA).
Plasma samples from untreated wild-type mice and Oatp1b2(−/−) mice were analyzed for structurally named and unknown molecules using a non-targeted semi-quantitative liquid chromatography-tandem mass spectrometry (LC-MS/MS) and gas chromatography-mass spectrometry platforms (Metabolon, Durham, NC, USA). Compounds were identified by comparison with library entries of purified standards or recurrent unknown entities.

CCCCC/C=C\C/C=C\C/C=C\C/C=C\CCCC(=O)OC[C@@H](O)COP(=O)(O)OCCN [1-arachidonoyl-GPE (20:4n6)]
Fold of Change KO/WT: 1.49
Mean value KO: 1.20
Mean value WT: .803

CC(=O)N[C@@H](Cc1cncn1C)C(=O)O [N-acetyl-3-methylhistidine]
Fold of Change KO/WT: 1.24
Mean value KO: 1.09
Mean value WT: .878

O=C(O)CCCCCCCCC(=O)O [sebacate (C10-DC)]
Fold of Change KO/WT: 1.44
Mean value KO: 1.20
Mean value WT: .833

CCCCCCCC/C=C\CCCCCCCC(N)=O [oleamide]
Fold of Change KO/WT: 1.38
Mean value KO: 1.22
Mean value WT: .886

O=C(O)CCCCCCCCCCCCCCC(=O)O [hexadecanedioate (C16-DC)]
Fold of Change KO/WT: 2.10
Mean value KO: 1.57
Mean value WT: .749

CCCCCCCC/C=C\CCCCCCCC(=O)O[C@H](CO/C=C\CCCCCCCCCCCCCC)COP(=O)(O)OCCN [1-(1-enyl-palmitoyl)-2-oleoyl-GPE (P-16:0/18:1)]
Fold of Change KO/WT: 1.32
Mean value KO: 1.18
Mean value WT: .895

CCC(CO)C(=O)O (stereo not shown) [3-hydroxy-2-ethylpropionate]
Fold of Change KO/WT: 1.25
Mean value KO: 1.10
Mean value WT: .879

CCCCCCCCCCCCCCCC(=O)OC[C@@H](O)COP(=O)(O)OCC(O)CO (stereo partly shown) [1-palmitoyl-GPG (16:0)]
Fold of Change KO/WT: 5.40
Mean value KO: 2.00
Mean value WT: .371

CCCCC/C=C\C/C=C\C/C=C\C/C=C\CCCC(=O)O[C@H](CO/C=C\CCCCCCCCCCCCCC)COP(=O)([O-])OCC[N+](C)(C)C [1-(1-enyl-palmitoyl)-2-arachidonoyl-GPC (P-16:0/20:4)]
Fold of Change KO/WT: 1.46
Mean value KO: 1.30
Mean value WT: .891

O=S(=O)(O)Oc1ccccc1 [phenol sulfate]
Fold of Change KO/WT: 1.40
Mean value KO: 1.23
Mean value WT: .879

O=C(O)CNC(=O)CCc1ccccc1 [phenylpropionylglycine]
Fold of Change KO/WT: 2.41
Mean value KO: 1.58
Mean value WT: .656

OC[C@@H](O)[C@@H](O)CO [erythritol]
Fold of Change KO/WT: 1.31
Mean value KO: 1.22
Mean value WT: .927

eicosenamide (20:1)
Fold of Change KO/WT: 1.43
Mean value KO: 1.27
Mean value WT: .885

O=C(O)CCCCCCCCCCCCCCCCCC(=O)O [nonadecanedioate (C19-DC)]
Fold of Change KO/WT: 1.44
Mean value KO: 1.30
Mean value WT: .902

CCCCCCCCCCCCCCCCCC(=O)O[C@H](COC(=O)CCCCCCCCCCCCCCC)COP(=O)([O-])OCC[N+](C)(C)C [1-palmitoyl-2-stearoyl-GPC (16:0/18:0)]
Fold of Change KO/WT: 1.14
Mean value KO: 1.09
Mean value WT: .960

C=Cc1ccc(OS(=O)(=O)O)cc1 [4-vinylphenol sulfate]
Fold of Change KO/WT: 1.55
Mean value KO: 1.32
Mean value WT: .847

CCO[C@@H]1O[C@H](CO)[C@@H](O)[C@H](O)[C@H]1O [ethyl beta-glucopyranoside]
Fold of Change KO/WT: 1.41
Mean value KO: 1.17
Mean value WT: .826

tauroursodeoxycholic acid sulfate (2)
Fold of Change KO/WT: 2.18
Mean value KO: 1.12
Mean value WT: .513

Cc1c(C)c2c(c(C)c1O)CC[C@@](C)(CCC[C@H](C)CCC[C@H](C)CCCC(C)C)O2 [α-tocopherol]
Fold of Change KO/WT: 2.03
Mean value KO: 1.44
Mean value WT: .707

C=CC1=C(C)/C(=C/c2[nH]c(Cc3[nH]c(/C=C4\NC(=O)C(C)=C4C=C)c(C)c3CCC(=O)O)c(CCC(=O)O)c2C)NC1=O [bilirubin (E,E)]
Fold of Change KO/WT: 6.12
Mean value KO: 1.17
Mean value WT: .191

CC(C)CC(O)C(=O)O (stereo not drawn) [alpha-hydroxyisocaproate]
Fold of Change KO/WT: 2.29
Mean value KO: 1.80
Mean value WT: .787

CCCCCCCC/C=C\CCCCCCCC(=O)OC[C@@H](O)COP(=O)([O-])OCC[N+](C)(C)C [1-oleoyl-GPC (18:1)]
Fold of Change KO/WT: 1.78
Mean value KO: 1.30
Mean value WT: .732

CSC[C@H](NC(=O)CC[C@H](N)C(=O)O)C(=O)NCC(=O)O [S-methylglutathione]
Fold of Change KO/WT: 1.19
Mean value KO: 1.11
Mean value WT: .931

CCCCCCCC/C=C\CCCCCCCC(=O)OCC(O)COP(=O)(O)OCC(O)CO (stereo not shown) [1-oleoyl-GPG (18:1)]
Fold of Change KO/WT: 8.19
Mean value KO: 1.80
Mean value WT: .219

O=C(O)CCc1ccccc1.O=C(O)CCc1ccccc1 [3-phenylpropionate (hydrocinnamate)]
Fold of Change KO/WT: 1.62
Mean value KO: 1.39
Mean value WT: .855

CCCCCCCCCCCCCC(=O)O[C@H](CC(=O)[O-])C[N+](C)(C)C [myristoylcarnitine (C14)]
Fold of Change KO/WT: 1.39
Mean value KO: 1.26
Mean value WT: .904

C[C@H](CCC(=O)NCCS(=O)(=O)O)[C@H]1CC[C@H]2[C@@H]3CC[C@@H]4C[C@H](O)CC[C@]4(C)[C@H]3C[C@H](O)[C@]12C [taurodeoxycholate]
Fold of Change KO/WT: 3.45
Mean value KO: 1.82
Mean value WT: .528

C[C@H](CCC(=O)O)[C@H]1CC[C@H]2[C@@H]3CC(=O)[C@@H]4C[C@H](O)CC[C@]4(C)[C@H]3CC[C@]12C [6-oxolithocholate]
Fold of Change KO/WT: 1.43
Mean value KO: 0.970
Mean value WT: .678

sphingomyelin (d18:2/16:0, d18:1/16:1)
Mean value WT: .940

CCCCCCCCCCCCCCCCCCCCCCCC(=O)OC[C@@H](O)COP(=O)([O-])OCC[N+](C)(C)C [1-lignoceroyl-GPC (24:0)]
Fold of Change KO/WT: 1.36
Mean value KO: 1.16
Mean value WT: .847

eicosadienamide (20:2)
Fold of Change KO/WT: 1.46
Mean value KO: 1.27
Mean value WT: .869

C[C@H](CCC(=O)NCCS(=O)(=O)O)[C@H]1CC[C@H]2[C@@H]3CC[C@@H]4C[C@H](OS(=O)(=O)O)CC[C@]4(C)[C@H]3CC[C@]12C [taurolithocholate 3-sulfate]
Fold of Change KO/WT: 2.25
Mean value KO: 0.960
Mean value WT: .425

CCCCC/C=C\C/C=C\C/C=C\C/C=C\CCCC(=O)O[C@H](COC(=O)CCCCCCC/C=C\CCCCCCCC)COP(=O)(O)OC1C(O)C(O)C(O)C(O)C1O (stereo partly shown) [1-oleoyl-2-arachidonoyl-GPI (18:1/20:4)]
Fold of Change KO/WT: 2.01
Mean value KO: 1.37
Mean value WT: .681

CCCCCCCC/C=C\CCCCCCCC(=O)OC[C@@H](O)COP(=O)(O)OCCN [1-oleoyl-GPE (18:1)]
Fold of Change KO/WT: 2.05
Mean value KO: 1.30
Mean value WT: .634

CC(C)CCC(=O)NCC(=O)O [isocaproylglycine]
Fold of Change KO/WT: 1.57
Mean value KO: 1.28
Mean value WT: .815

CCc1ccc(OS(=O)(=O)[O-])cc1.[K+] [4-ethylphenylsulfate]
Fold of Change KO/WT: 17.2
Mean value KO: 4.08
Mean value WT: .238

C[C@H](CCC(=O)O)[C@H]1CC[C@H]2[C@@H]3C[C@@H](O)[C@@H]4C[C@H](O)CC[C@]4(C)[C@H]3CC[C@]12C [6-beta-hydroxylithocholate]
Fold of Change KO/WT: 13.1
Mean value KO: 1.16
Mean value WT: .0890

CC(C)C(=O)O[C@H](CC(=O)[O-])C[N+](C)(C)C [isobutyrylcarnitine (C4)]
Fold of Change KO/WT: 1.40
Mean value KO: 1.15
Mean value WT: .817

octadecenedioate (C18:1-DC)
Fold of Change KO/WT: 2.66
Mean value KO: 1.45
Mean value WT: .544

C[C@H](CCC(=O)NCCS(=O)(=O)O)[C@H]1CC[C@H]2[C@@H]3CC[C@@H]4C[C@H](OS(=O)(=O)O)CC[C@]4(C)[C@H]3C[C@H](O)[C@]12C [taurodeoxycholic acid 3-sulfate]
Fold of Change KO/WT: 1.58
Mean value KO: 1.10
Mean value WT: .694

CCCCC/C=C\C/C=C\C/C=C\C/C=C\CCCC(=O)O[C@H](CO/C=C\CCCCCCCCCCCCCCCC)COP(=O)(O)OCCN [1-(1-enyl-stearoyl)-2-arachidonoyl-GPE (P-18:0/20:4)]
Fold of Change KO/WT: 1.33
Mean value KO: 1.10
Mean value WT: .828

CCCCCCCCCCCCCC/C=C\OC[C@H](COP(=O)([O-])OCC[N+](C)(C)C)OC(=O)CCCCCCCCCCCCCCC [1-(1-enyl-palmitoyl)-2-palmitoyl-GPC (P-16:0/16:0)]
Fold of Change KO/WT: 1.24
Mean value KO: 1.14
Mean value WT: .919

CC(=O)N[C@@H](CC(=O)c1ccccc1N)C(=O)O [N-acetylkynurenine (2)]
Fold of Change KO/WT: 1.41
Mean value KO: 1.17
Mean value WT: .827
